{"source": "patent US20220088130A1", "about": "“COMPOUNDS AND METHODS FOR TREATING LIVER DISEASES” (Eberhard Karls Universität Tübingen Medizinische Fakultät, priority 2019, published 2022)", "key": {"[1]": {"system": "zinc-dependent Aβ-degrading enzymes (ACE, ECE, NEP) in M1-4HSC lysates", "assay": "Inhibition by EGTA of Aβ40/42 degradation in M1-4HSC lysates", "format": "biochemical", "conditions": "5 mM EGTA; 30 and 60 minutes", "method": "To quantify the Aβ42-degading ability of M1-4HSC lysate's, cell lysates from M1-4HSC (50,000 cells/ml) were obtained by 2 freezing thawing cycles at −80° C. and centrifugation for 10 min at 20,000 g.\nTo confirm that the disappearance of Aβ from HSC lysates reflects its enzymatic degradation rather than non-specific loss that can occur in cell lysates the activity of zinc-dependent AR-degrading enzymes comprising angiotensin converting enzyme (ACE) and endothelin converting enzyme (ECE) known to be present in HSC1 as well as NEP was blocked by 5 mM EGTA (white bars in FIG. 1D and FIG. 1E)."}, "Primary murine HSC": {"system": "Primary murine HSC", "assay": "Inhibition of Aβ40 and 42 degradation by HSC in response to sacubitrilat (ELISA of supernatant)", "format": "cell-based", "conditions": "48 h, with vs. without LBQ657", "method": "FIG. 9 (A-B) shown an inhibition of Aβ40 and 42 degradation by HSC in response to sacubitrilat (LBQ657). Primary murine HSC were incubated with 1000 pg/ml Aβ40 or 42 with and without LBQ657. The content of Aβ in the cell culture supernatant was measured by ELISA 48 h after incubation with Aβ40 or 42 with and without LBQ657."}, "Col-1 in M1-4HSC": {"system": "Col-1 in M1-4HSC", "assay": "Col-1 production in M1-4HSC treated with Aβ (ELISA)", "format": "cell-based", "conditions": "M1-4HSC culture"}, "TGF-β in M1-4HSC": {"system": "TGF-β in M1-4HSC", "assay": "TGF-β level in M1-4HSC treated with Aβ (Western blot, densitometry)", "format": "cell-based", "conditions": "for Expression of TGF-β: Western blot; for Intensity of TGF-β bands (55 kDa, 44 kDa, 23 kDa) adjusted to GAPDH: densitometric calculations vs. untreated ctrl.", "source_text": "(§1) The data are shown as means±SEM, *p<0.05, ***p<0.001."}, "M1-4HSC lysates": {"system": "M1-4HSC lysates", "assay": "Degradation of Aβ42 and Aβ40 by M1-4HSC lysates (ELISA)", "format": "in vitro ADME", "conditions": "for Degradation by M1-4HSC lysates: 1000 pg/ml, normalized to control without cells"}, "α-SMA in M1-4HSC": {"system": "α-SMA in M1-4HSC", "assay": "α-SMA level in M1-4HSC treated with Aβ (Western blot)", "format": "cell-based", "conditions": "1000 pg/ml", "source_text": "as §1"}, "HSC-T6": {"system": "HSC-T6", "assay": "Aβ42 uptake from culture medium by HSC-T6 (ELISA of supernatant)", "format": "cell-based, rat", "method": "(§2) After 24 h, supernatant was centrifuged at 1500 g for 15 minutes and frozen at −80° C. until analysis.\n(§3) Therefore, as a control for inherent decrease of amyloid concentrations control samples containing only culture medium, without cells (w/c) were incubated with Aβ for the same periods of time."}, "LX-2": {"system": "LX-2", "assay": "Aβ42 uptake from culture medium by LX-2 (ELISA of supernatant)", "format": "cell-based, human", "conditions": "50,000-200,000 cells", "method": "as §2"}, "[2]": {"system": "astroglial primary cultures (APC)", "assay": "Aβ42 uptake from culture medium by astroglial primary cultures (ELISA of supernatant)", "format": "cell-based, mouse", "conditions": "astrocytes (APC); 1000 pg/ml Aβ42 in medium; 48 h of incubation", "method": "Astroglia-rich primary cultures (APC) were prepared from newborn C57/BL6 (Charles River) mouse brains as described elsewhere (Lourhmati A, Buniatian G H, Paul C, et al. Age-dependent astroglial vulnerability to hypoxia and glutamate: the role for erythropoietin. PLoS One 2013; 8:e77182.). Briefly, the cells obtained from 5-7 brains of newborn littermates were mechanically dissociated, centrifuged and plated onto cell culture flasks (1×10^6 cells/75 cm2) in DMEM with 4.5 g/l Glucose supplemented with 10% foetal calf serum, 100 μg/ml streptomycin sulphate, 100 units/ml penicillin G and […] (Biochrom AG, Berlin, Germany) in a humidified 10% CO2 atmosphere at 37° C.\nas §2, §3"}, "[3]": {"assay": "Loss of Aβ in cell culture medium without cells (control samples)", "format": "physicochemical", "method": "as §3"}, "M1-4HSC": {"system": "M1-4HSC", "assay": "Aβ42 uptake from culture medium by M1-4HSC (ELISA of supernatant)", "format": "cell-based", "method": "as §2, §3"}, "[4]": {"system": "eNOS in hSEC (human liver endothelial cells)", "assay": "eNOS synthesis by hSEC treated with Aβ (ELISA)", "format": "cell-based", "source_text": "Means±SEM, *p<0.05, **p<0.01, ***p<0.001."}, "[5]": {"system": "VEGF in liver sinusoidal endothelial cells", "assay": "VEGF expression in liver sinusoidal endothelial cells exposed to Aβ", "format": "cell-based"}, "[6]": {"conditions": "after 30 minutes of incubation with M1-4HSC lysates"}}, "note": "Entries after “also recorded” stand apart in the source; their conditions may differ."}
{"compound": "O=C(O)CN(CCOCCOCCN(CC(=O)O)CC(=O)O)CC(=O)O", "note": "[EGTA]", "values": [{"measurement": "Effect on degradation of Aβ40/42 by M1-4HSC lysates", "setting": "[1]", "value": "dramatically inhibited; also recorded: abolished the degradation"}]}
{"compound": "C[C@H](C[C@@H](Cc1ccc(-c2ccccc2)cc1)NC(=O)CCC(=O)O)C(=O)O", "note": "[LBQ657, Sacubitrilat]", "values": [{"measurement": "Aβ40 degradation by HSC (content of Aβ in supernatant)", "setting": "Primary murine HSC; 1000 pg/ml Aβ40", "value": "Decreased degradation of Aβ"}, {"measurement": "Aβ42 degradation by HSC (content of Aβ in supernatant)", "setting": "Primary murine HSC; 1000 pg/ml Aβ42", "value": "Decreased degradation of Aβ"}]}
{"compound": "amyloid beta 40 [Aβ40]", "values": [{"measurement": "Col-1 production (in words)", "setting": "Col-1 in M1-4HSC", "value": "only a slight reduction"}, {"measurement": "Expression of TGF-β", "setting": "TGF-β in M1-4HSC", "value": "reduced the expression"}, {"measurement": "Intensity of TGF-β bands (55 kDa, 44 kDa, 23 kDa) adjusted to GAPDH", "setting": "TGF-β in M1-4HSC", "value": "capable of decreasing only the 44 kDa band"}, {"measurement": "Level compared to the initial level in control samples without cell lysates", "setting": "M1-4HSC lysates; [6]", "value": 50, "unit": "%"}, {"measurement": "Degradation by M1-4HSC lysates", "setting": "M1-4HSC lysates; after 30 minutes", "value": 50, "unit": "%"}, {"measurement": "Level compared to the initial level in control samples without cell lysates", "setting": "M1-4HSC lysates; after 60 minutes of incubation with M1-4HSC lysates", "value": 25, "unit": "%"}, {"measurement": "Degradation by M1-4HSC lysates", "setting": "M1-4HSC lysates; after 60 minutes", "value": 75, "unit": "%"}, {"measurement": "Expression of α-SMA", "setting": "α-SMA in M1-4HSC", "value": "reduced the expression"}]}
{"compound": "amyloid beta 42 [Aβ42]", "values": [{"measurement": "Col-1 production (in words)", "setting": "Col-1 in M1-4HSC", "value": "suppression of Col-1 production"}, {"measurement": "Uptake of Aβ42 vs. APC (decrease in cell culture supernatant)", "setting": "HSC-T6", "value": "two-fold higher uptake"}, {"measurement": "Suppression of TGF-β synthesis, Aβ42 compared with Aβ40", "setting": "TGF-β in M1-4HSC", "value": "more potent than Aβ40"}, {"measurement": "Expression of TGF-β", "setting": "TGF-β in M1-4HSC", "value": "reduced the expression"}, {"measurement": "Intensity of TGF-β bands (55 kDa, 44 kDa, 23 kDa) adjusted to GAPDH", "setting": "TGF-β in M1-4HSC", "value": "significantly decreased intensity"}, {"measurement": "Amount of Aβ42 internalized by LX-2", "setting": "LX-2", "value": "grew with increasing number of cells in culture"}, {"measurement": "Aβ42 internalized by cells, of the remaining part available in culture medium", "setting": "[2]", "value": 28, "unit": "%"}, {"measurement": "Peptide absorbed on plastic carrier", "setting": "[3]; from 1000 pg/ml Aβ42 in culture medium, after 48 h of incubation", "value": "about 50%"}, {"measurement": "Uptake of Aβ42 vs. APC (decrease in cell culture supernatant)", "setting": "M1-4HSC; M1-4HSC vs. APC, ELISA", "value": "two-fold higher uptake"}, {"measurement": "Aβ42 internalized by cells, of the remaining part available in culture medium", "setting": "M1-4HSC; M1-4HSC, 1000 pg/ml Aβ42 in medium, 48 h of incubation", "value": 55, "unit": "%"}, {"measurement": "Level compared to the initial level in control samples without cell lysates", "setting": "M1-4HSC lysates; [6]", "value": 50, "unit": "%"}, {"measurement": "Degradation by M1-4HSC lysates", "setting": "M1-4HSC lysates; after 30 minutes", "value": 50, "unit": "%"}, {"measurement": "Expression of α-SMA", "setting": "α-SMA in M1-4HSC", "value": "reduced the expression"}, {"measurement": "eNOS synthesis", "setting": "[4]", "value": "upregulation of eNOS synthesis"}]}
{"compound": "amyloid beta [Aβ]", "values": [{"measurement": "Loss of Aβ after incubation with cell culture medium in the absence of cells", "setting": "[3]; 24-48 h, data not shown", "value": "over 50%"}, {"measurement": "Expression of liver permeability marker VEGF", "setting": "[5]", "value": "increase in expression"}, {"measurement": "eNOS synthesis", "setting": "[4]", "value": "increased synthesis of eNOS"}]}
